Values of other authors as cited in patent US20250347706A1, “DISPOSABLE CARTRIDGE FOR CLASSIFICATION OF ANTICOAGULANT AND METHOD OF USE” (Haemonetics Corporation, priority 2023, published 2025).

Settings: for half-life compared with dabigatran: in vivo

half-life compared with dabigatran | increased half-life (patients with severe renal impairment compared to healthy volunteers (Dager et al.)) | half-life (lengthened in patients with renal dysfunction, Pradaxa product information) | Compound
shorter half-lives than dabigatran | up to 44% |  | COc1ccc(-n2nc(C(N)=O)c3c2C(=O)N(c2ccc(N4CCCCC4=O)cc2)CC3)cc1 [apixaban]
 |  | 12 to 17 h | dabigatran
shorter half-lives than dabigatran |  |  | O=C(NC[C@H]1CN(c2ccc(N3CCOCC3=O)cc2)C(=O)O1)c1ccc(Cl)s1 [rivaroxaban]
